The record followed here is patent publication US11179388B2, “Topical composition for treating rosacea and a method for treating rosacea with the same” (ADS THERAPEUTICS LLC, priority 2017, dated 2021).

The subject of data set [1] is pterygium patients (pterygium vascularity). Kind of data set: Phase 2a clinical trial of nintedanib eye drop in pterygium patients. It is filed as in vivo, human. As to the method:
Nintedanib was formulated into an eye drop and tested in pterygium patients in a Phase 2a clinical trial to evaluate the safety and efficacy of nintedanib. The key efficacy endpoint is effects on pterygium vascularity.
The clinic trial was conducted in two stages. In stage 1, the safety, tolerability and pharmacokinetics were evaluated in a single dose escalating study. Three dose cohorts with 8 patients in each were evaluated. Cohort 1 began at the lowest concentration of 0.02% nintedanib (weight percent based on the total weight of the eye drop), followed by an increasing dose to 0.05% for Cohort 2 and then to 0.2% for Cohort 3.
In stage 2, the safety, tolerability and efficacy of the 0.2% formulation were evaluated in a randomized, double-masked, vehicle-controlled, parallel study with 28 days TID repeat ocular dosing of vehicle and 0.2% nintedanib. The patients were further followed up by 20 weeks of post-dosing observation. Ophthalmic and physical examinations were performed at screening, Day 1 and Week 2, 4, 8, 16, and 24. External photograph of the pterygium eye was taken using a digital camera and the pterygium vascularity was graded from these images at an independent image reading center. The primary objective is to evaluate ocular and systemic safety of nintedanib in pterygium patients that have moderate to severe pterygium vascularity. […]

For data set [2], the system named is Rosacea patients with moderate to severe persistent facial erythema. Briefly: Erythema study, Clinician Erythema Assessment (CEA) in rosacea patients. It is filed as in vivo, human. From the text: Rosacea patients with moderate to severe persistent facial erythema are selected for treatment. The erythema is graded according to the Clinician Erythema Assessment (CEA) scale with photonumeric guide. It has a five-point scale: 0: clear skin with no signs of erythema; 1: almost clear, slight redness; 2: mild erythema, definite redness; 3: moderate erythema, marked redness; 4: severe erythema, fiery redness. Patients with CEA […] are enrolled in the study.
The study is double-masked. There are 5 treatment groups for 5 cream formulations (vehicle, 0.2% nintedanib, 0.3% brimonidine, combo-1 [0.2% nintedanib and 0.3% brimonidine], and combo-2 [0.1% nintedanib and 0.15% brimonidine]) to be tested and each group will have about 20 patients. The patients are assigned to the groups in a way to make sure the base line average grade is similar among the groups. The formulations are dosed once daily for 4 weeks and the patients are further followed up for 8 weeks. The drug is administered by a physician on the first day of visit and then self-administered by the patient for the remaining 4 weeks. Patients are evaluated on day 1, week 2 and 4 during dosing. After the stop of dosing, patients are further followed up at week 8 and 12.
The effect on erythema is evaluated by taking pictures of the face. […] The tolerability of the formulations is also evaluated by assessing treatment related adverse events. The efficacy and tolerability data are analyzed by independent statisticians.

Setting [3] is: day 1 after dosing, cream formulations.
[4] abbreviates: week 1, 2 and 4, during dosing, cream once daily.

As to `COC(=O)c1ccc2c(c1)NC(=O)/C2=C(\Nc1ccc(N(C)C(=O)CN2CCN(C)CC2)cc1)c1ccccc1` [Nintedanib, (Z)-3-(1-(4-(N-((4-methyl-piperazin-1-yl)-methylcarbonyl)-N-methyl-amino)-phenylamino)-1-phenyl-methylene]-6-methoxycarbonyl-2-indolinone], the “safety and tolerability (stage 2)” value in data set [1] (0.2% eye drop TID 28 days, 20 weeks post-dosing observation) is listed as “excellent with no serious adverse events”. In addition, in data set [1] (eye drop 0.02%, 0.05% and 0.2%, single dose, 8 patients per cohort), the “safety, single dose escalating study (stage 1)” value is “No safety issues”. Also, the “erythema grade after stop of treatment” value in data set [2] (after stop of dosing at week 4, week 8 and 12) is “remains lower than the baseline”. In addition, the “erythema grade reduction from baseline” value in data set [2] (setting [3]) is “does not change”; in data set [2] (setting [4]), “about 1 grade”.

On to `Brc1c(NC2=NCCN2)ccc2nccnc12` [brimonidine, (5-bromoquinoxalin-6-yl)-(4,5-dihydro-1H-imidazol-2-yl)-amine], for which the results for the “erythema grade reduction from baseline” value in data set [2] (setting [3]) and in data set [2] (setting [4]) were “about 1 grade” and “reduction remains”, respectively. Also, the “erythema grade versus baseline after stop of treatment” value is listed as “slightly higher than baseline” in data set [2] (week 8) and “returns to the baseline” in data set [2] (week 12).
